In patent US5852210A, “Cinnamic acid derivatives” (G. D. Searle & Co., priority 1997, dated 1998):
Counter-ions that a name gives are not always drawn.

Tests used:
[1] = target: T1, Human vitronectin receptor (αv β3) (Homo sapiens, UniProt P05106+P06756); assay: Vitronectin adhesion assay (solid phase receptor assay, αvβ3); format: binding; conditions: inhibition of binding of biotinylated human vitronectin (1 nM) to purified receptor; Table I; read-out: AvB3 IC50
T1 construct: Human vitronectin receptor (αv β3) was purified from human placenta; from tissue; host or cells: human placenta
T1 sequence (P06756 31-889 limits assumed): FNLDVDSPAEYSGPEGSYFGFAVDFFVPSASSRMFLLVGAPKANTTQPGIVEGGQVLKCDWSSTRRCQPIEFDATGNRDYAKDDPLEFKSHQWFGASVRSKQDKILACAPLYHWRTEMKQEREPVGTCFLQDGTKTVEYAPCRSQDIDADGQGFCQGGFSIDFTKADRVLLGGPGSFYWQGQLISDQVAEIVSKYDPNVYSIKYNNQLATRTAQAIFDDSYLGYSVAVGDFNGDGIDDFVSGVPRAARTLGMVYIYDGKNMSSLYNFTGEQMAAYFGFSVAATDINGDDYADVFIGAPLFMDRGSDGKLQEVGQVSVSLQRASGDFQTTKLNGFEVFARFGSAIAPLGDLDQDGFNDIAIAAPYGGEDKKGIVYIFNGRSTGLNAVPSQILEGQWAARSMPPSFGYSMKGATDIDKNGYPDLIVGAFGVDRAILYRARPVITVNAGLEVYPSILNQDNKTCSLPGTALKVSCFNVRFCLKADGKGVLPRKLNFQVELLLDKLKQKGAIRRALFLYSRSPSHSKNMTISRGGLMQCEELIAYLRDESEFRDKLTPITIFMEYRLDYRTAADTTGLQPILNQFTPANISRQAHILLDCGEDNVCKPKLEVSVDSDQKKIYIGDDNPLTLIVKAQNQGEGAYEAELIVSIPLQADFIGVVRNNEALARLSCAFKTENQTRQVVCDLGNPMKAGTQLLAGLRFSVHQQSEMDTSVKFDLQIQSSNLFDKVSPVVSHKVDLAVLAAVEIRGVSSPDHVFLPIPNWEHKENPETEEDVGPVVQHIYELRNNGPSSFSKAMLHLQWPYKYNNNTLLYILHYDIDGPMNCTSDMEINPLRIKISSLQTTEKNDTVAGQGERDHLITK
T1 sequence (P06756 891-1048 limits assumed): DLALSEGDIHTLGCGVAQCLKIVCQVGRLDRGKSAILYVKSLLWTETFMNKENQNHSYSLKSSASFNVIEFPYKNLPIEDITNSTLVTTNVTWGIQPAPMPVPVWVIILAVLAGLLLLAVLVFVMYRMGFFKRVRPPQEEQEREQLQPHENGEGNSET
T1 sequence (P05106 27-788): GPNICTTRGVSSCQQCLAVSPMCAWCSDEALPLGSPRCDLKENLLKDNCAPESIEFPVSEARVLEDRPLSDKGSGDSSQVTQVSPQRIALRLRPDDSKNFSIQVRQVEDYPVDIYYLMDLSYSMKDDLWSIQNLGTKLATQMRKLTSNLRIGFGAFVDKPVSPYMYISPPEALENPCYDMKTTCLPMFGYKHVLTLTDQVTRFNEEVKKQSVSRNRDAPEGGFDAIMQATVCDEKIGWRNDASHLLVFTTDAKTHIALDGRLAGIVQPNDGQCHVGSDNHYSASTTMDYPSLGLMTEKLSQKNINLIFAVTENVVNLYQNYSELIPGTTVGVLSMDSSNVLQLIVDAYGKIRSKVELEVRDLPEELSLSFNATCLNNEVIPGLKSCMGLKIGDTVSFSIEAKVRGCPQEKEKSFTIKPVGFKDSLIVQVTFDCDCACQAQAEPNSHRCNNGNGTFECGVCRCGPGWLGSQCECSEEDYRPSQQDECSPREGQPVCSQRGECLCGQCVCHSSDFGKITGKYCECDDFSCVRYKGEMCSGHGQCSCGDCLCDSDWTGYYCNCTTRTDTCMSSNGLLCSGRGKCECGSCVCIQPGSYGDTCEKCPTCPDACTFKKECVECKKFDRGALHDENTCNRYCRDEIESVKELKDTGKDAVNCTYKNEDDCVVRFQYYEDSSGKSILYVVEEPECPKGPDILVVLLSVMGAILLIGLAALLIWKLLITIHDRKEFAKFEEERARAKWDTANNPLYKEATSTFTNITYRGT
In short: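 Placental αvβ3 (100 ng/well) coated in TBS with 1 mM Ca, Mg, Mn, pH 7.4, then compound competed with 1 nM biotinylated vitronectin for 2 h at room temperature (top compound concentration 1.0×10^-4 M). Bound ligand detected with HRP anti-biotin/OPD at 450 nm; values normalized to maximum binding, four-parameter curve fit.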

[2] = target: T2, Human fibrinogen receptor (αIIb β3) (Homo sapiens, UniProt P05106+P08514); assay: Purified IIb/IIIa receptor assay (solid phase receptor assay); conditions: inhibition of binding of biotinylated human vitronectin (1 nM) to purified receptor; Table I
T2 construct: Human fibrinogen receptor (αIIb β3) was purified from outdated platelets; from tissue; host or cells: human outdated platelets
T2 sequence (P08514 32-887 limits assumed): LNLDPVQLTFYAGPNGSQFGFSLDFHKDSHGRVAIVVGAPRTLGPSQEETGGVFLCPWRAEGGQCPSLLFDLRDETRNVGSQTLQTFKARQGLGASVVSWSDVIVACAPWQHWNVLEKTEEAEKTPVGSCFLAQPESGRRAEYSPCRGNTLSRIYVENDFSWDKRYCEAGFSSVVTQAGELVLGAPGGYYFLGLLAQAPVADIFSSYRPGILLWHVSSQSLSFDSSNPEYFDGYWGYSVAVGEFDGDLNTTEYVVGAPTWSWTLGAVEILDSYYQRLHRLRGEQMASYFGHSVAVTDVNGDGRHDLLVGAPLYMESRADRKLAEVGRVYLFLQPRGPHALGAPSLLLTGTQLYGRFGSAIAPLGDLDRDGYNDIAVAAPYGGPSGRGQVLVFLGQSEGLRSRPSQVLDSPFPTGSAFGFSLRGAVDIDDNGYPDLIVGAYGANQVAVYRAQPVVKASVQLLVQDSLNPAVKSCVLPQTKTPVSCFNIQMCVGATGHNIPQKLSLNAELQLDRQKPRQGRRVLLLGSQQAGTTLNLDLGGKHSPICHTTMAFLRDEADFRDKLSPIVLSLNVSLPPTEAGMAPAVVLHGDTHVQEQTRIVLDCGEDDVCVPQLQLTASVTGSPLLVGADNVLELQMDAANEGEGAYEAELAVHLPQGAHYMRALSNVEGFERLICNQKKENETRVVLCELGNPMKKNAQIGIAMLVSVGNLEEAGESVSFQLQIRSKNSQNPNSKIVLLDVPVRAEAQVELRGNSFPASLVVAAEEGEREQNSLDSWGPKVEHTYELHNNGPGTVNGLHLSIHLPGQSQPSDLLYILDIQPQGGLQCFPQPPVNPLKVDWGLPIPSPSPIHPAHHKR
T2 sequence (P08514 891-1039 limits assumed): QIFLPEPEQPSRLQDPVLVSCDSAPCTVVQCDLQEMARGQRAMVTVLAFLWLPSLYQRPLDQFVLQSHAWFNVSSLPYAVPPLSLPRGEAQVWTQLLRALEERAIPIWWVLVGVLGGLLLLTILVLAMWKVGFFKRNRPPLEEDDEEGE
T2 sequence (P05106 27-788): as the sequence (P05106 27-788) above
In short: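 Platelet-purified αIIbβ3 (100 ng/well) coated overnight at 4 °C, then competed 2 h at room temperature against 1 nM biotinylated human vitronectin in TBS with 1.0 mM Ca/Mg/Mn, pH 7.4, 1% BSA; top compound 1.0×10^-4 M. Bound ligand detected by HRP anti-biotin, A450, normalized to maximum binding, four-parameter fit.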

Row | Compound | IC50 [1] | IC50 [2]
1 | CC(C)COC(=O)N1CCN=C1Nc1cccc(C(=O)NCc2cccc(/C=C/C(=O)O)c2)c1 [Example 65, 3-[3-[[[[3-[[4,5-dihydro-1-[(2-methylpropoxy)carbonyl]-1H-imidazol-2-yl]amino]phenyl]carbonyl]amino]methyl]phenyl]propenoic acid, monohydrochloride hydrate] | 12.1 nM | 4950 nM
2 | O=C(O)/C=C/c1cccc(CNC(=O)c2cccc(NC3=NCCN3)c2)c1 [Example 67, 3-[3-[[[[3-[(4,5-dihydro-1H-imidazol-2-yl)amino]phenyl]carbonyl]amino]methyl]phenyl]propenoic acid, monohydrochloride hydrate] | 2.27 nM | 12000 nM
3 | O=C(O)/C=C/c1cccc(CNC(=O)c2cc(NC3=NCCCN3)cc(C(F)(F)F)c2)c1 [Example 69, 3-[3-[[[[3-[(1,4,5,6-tetrahydropyrimidin-2-yl)amino]-5-(trifluoromethyl)phenyl]carbonyl]amino]methyl]phenyl]propenoic acid, dihydrochloride hydrate] | 1.78 nM | 38900 nM
4 | O=C(O)/C=C/c1cccc(CNC(=O)c2cc(NC3=NCCN3)cc(C(F)(F)F)c2)c1 [Example 71, 3-[3-[[[[3-[(4,5-dihydro-1H-imidazol-2-yl)amino]-5-(trifluoromethyl)phenyl]carbonyl]amino]methyl]phenyl]propenoic acid, monohydrochloride hydrate] | 1.33 nM | 18500 nM
5 | O=C(O)/C=C/c1cccc(CNC(=O)c2cccc(Nc3ncccn3)c2)c1 [Example 73, 3-[3-[[[[3-[(2-pyrimidinyl)amino]phenyl]carbonyl]amino]methyl]phenyl]propenoic acid, trifluoroacetate salt] | 20400 nM | 66000 nM
6 | CC/C(=C\C(=O)O)c1cccc(CNC(=O)c2cccc(NC(=N)N)c2)c1 [Example 74, 3-[3-[[[[3-[(aminoiminomethyl)amino]phenyl]carbonyl]amino]methyl]phenyl]-2E-pentenoic acid, trifluoroacetate salt hydrate] | 2690 nM | > 100000 nM
7 | N=C(N)Nc1cccc(C(=O)NCc2cccc(C(=CC(=O)O)c3cc(Cl)cc(Cl)c3)c2)c1 [Example 75, 3-[3-[[[[3-[(aminoiminomethyl)amino]phenyl]carbonyl]amino]methyl]phenyl]-3-(3,5-dichlorophenyl) propenoic acid, trifluoroacetate salt] | 42700 nM | > 100000 nM
8 | O=C(O)/C=C/c1ccc2c(c1)CCN2C(=O)c1cccc(NC2=NCCCN2)c1 [Example 76, 3-[2,3-dihydro-1-[[3-[(1,4,5,6-tetrahydropyrimidin-2-yl)amino]phenyl]carbonyl]-1H-indol-5-yl]propenoic acid, trifluoroacetate salt] | 8.8 nM | 825 nM
9 | O=C(O)/C=C/c1ccc2c(c1)CCN2C(=O)c1cccc(NC2=NCCN2)c1 [Example 77, 3-[1-[[3-[(4,5-dihydro-1H-imidazol-2-yl)amino]phenyl]carbonyl]2,3-dihydro-1H-indol-5-yl]propenoic acid, trifluoroacetate salt] | 12.3 nM | 231 nM
10 | O=C(O)/C=C/c1ccc2c(c1)CCCN2C(=O)c1cccc(NC2=NCCCN2)c1 [Example 78, 3-[1-[[3-[(1,4,5,6-tetrahydropyrimidin-2-yl)amino]phenyl]carbonyl]-1,2,3,4-tetrahydro-quinolin-6-yl]propenoic acid, trifluoroacetate salt] | 56.3 nM | 1790 nM
11 | O=C(O)C=Cc1cc(C(=O)C=Cc2cccc(C3=NCCCN3)c2)ccc1F [Example 85, 3-[5-[3-[3-[(1,4,5,6-tetrahydrolpyrimidin-2-yl)]phenyl]-1-oxopropenyl]-2-fluorophenyl]propenoic acid, trifluoroacetate salt] | 92 nM | 20800 nM
12 | COc1ccc(/C=C/C(=O)O)cc1C(=O)/C=C/c1cccc(NC(=N)N)c1 [Example 86, 3-[3-[3-[3-[(aminoiminomethyl)amino]phenyl]-1-oxopropenyl]-4-methoxyphenyl]propenoic acid, trifluoroacetate salt] | 580 nM | 563 nM
13 | COc1ccc(/C=C/C(=O)O)cc1C(=O)/C=C/c1cccc(NC2=NCCN2)c1 [Example 87, 3-[3-[3-[3-[(4,5-dihydro-1H-imidazol-2-yl)amino]phenyl]-1-oxopropenyl]-4-methoxyphenyl]propenoic acid, trifluoroacetate salt] | 90.5 nM | 2640 nM
14 | O=C(O)/C=C/c1cccc(C(=O)/C=C/c2cccc(NC3=NCCCN3)c2)c1 [Example 90, 3-[3-[1-oxo-3-[3-[(1,4,5,6-tetrahydropyrimidin-2-yl)amino]phenyl]-2-propenyl]phenyl]propenoic acid, trifluoroacetate salt] | 6.98 nM | 2320 nM
15 | O=C(O)/C=C/c1cccc(C(=O)CCc2cccc(NC3=NCCCN3)c2)c1 [Example 93, 3-[3-[1-oxo-3-[3-[(1,4,5,6-tetrahydropyrimidin-2-yl)amino]phenyl]propyl]phenyl]propenoic acid, trifluoroacetate salt] | 6.1 nM | 5990 nM
16 | O=C(O)/C=C/c1cccc(/C=C/C(=O)c2cccc(NC3=NCCCN3)c2)c1 [Example 94, 3-[3-[3-oxo-3-[3-[(1,4,5,6-tetrahydropyrimidin-2-yl)amino]phenyl]-1-propenyl]phenyl]propenoic acid, trifluoroacetate salt] | 11.3 nM | 2710 nM
17 | O=C(O)/C=C/c1cccc(CCC(=O)c2cccc(NC3=NCCCN3)c2)c1 [Example 95, 3-[3-[3-oxo-3-[3-[(1,4,5,6-tetrahydropyrimidin-2-yl)amino]phenyl]propyl]phenyl]propenoic acid, trifluoroacetate salt hydrate] | 58.5 nM | 11800 nM
18 | O=C(O)/C=C/c1ccc(/C=C/c2cccc(NC3=NCCCN3)c2)cc1 [Example 98, 3-[4-[2-[3-[(1,4,5,6-tetrahydropyrimidin-2-yl)amino]phenyl]ethenyl]phenyl]propenoic acid, trifluoroacetate salt] | 5.08 nM | 222 nM
19 | O=C(O)/C=C/c1ccc(/C=C/c2cccc(NC3=NCCN3)c2)cc1 [Example 99, 3-[4-[2-[3-[(4,5-dihydro-1H-imidazol-2-yl)amino]phenyl]ethenyl]phenyl]propenoic acid, trifluoroacetate salt] | 26.5 nM | 722 nM

Next, values leading:

Row | IC50 [1] | IC50 [2] | Compound
20 | 12 nM | 415 nM | N=C(N)Nc1cccc(C(=O)COc2cccc(/C=C/C(=O)O)c2)c1 [Example 79, 3-[3-[2-[3-[(aminoimino)methyl]amino]phenyl]-2-oxoethoxy]phenyl]propenoic acid, trifluoroacetate salt]
21 | 1.02 nM | 3470 nM | O=C(O)/C=C/c1cccc(OCC(=O)c2cccc(NC3=NCCN3)c2)c1 [Example 80, 3-[3-[2-[3-[(4,5-dihydro-1H-imidazol-2-yl)amino]phenyl]-2-oxoethoxy]phenyl]propenoic acid, trifluoroacetate salt]
22 | 54.3 nM | 5020 nM | N=C(N)Nc1cccc(C(O)CNc2cccc(/C=C/C(=O)O)c2)c1 (centres unmarked) [Example 81, 3-[3-[[2-[3-[(aminoiminomethyl)amino]phenyl]-2-hydroxyethyl]amino]phenyl]propenoic acid, (bis)trifluoroacetate salt hydrate]
23 | 21.7 nM | 10000 nM | O=C(O)/C=C/c1cccc(C(=O)COc2cccc(NC3=NCCN3)c2)c1 [Example 83, 3-[3-[2-[3-[(4,5-dihydro-1H-imidazol-2-yl)amino]phenoxy]acetyl]phenyl]propenoic acid, trifluoroacetate salt]
24 | 891 nM | 35200 nM | N=C(N)Nc1cccc(/C=C/C(=O)c2ccc(F)c(/C=C/C(=O)O)c2)c1 [Example 84, 3-[5-[3-[3-[(aminoiminomethyl)amino]phenyl]-1-oxopropenyl]-2-fluorophenyl]propenoic acid, trifluoroacetate salt]
25 | 37.3 nM | 2610 nM | N=C(N)Nc1cccc(/C=C/C(=O)c2cccc(/C=C/C(=O)O)c2)c1 [Example 88, 3-[3-[3-[3-[(aminoiminomethyl)amino]phenyl]-1-oxopropenyl]phenyl]propenoic acid, trifluoroacetate salt]
26 | 196 nM | 1260 nM | N=C(N)Nc1cccc(C(=O)/C=C/c2cccc(/C=C/C(=O)O)c2)c1 [Example 89, 3-[3-[3-[3-[(aminoiminomethyl)amino]phenyl]-3-oxopropenyl]phenyl]propenoic acid, trifluoroacetate salt hydrate]
27 | 1270 nM | 8670 nM | N=C(N)Nc1cccc(C(=O)CCc2cccc(/C=C/C(=O)O)c2)c1 [Example 91, 3-[3-[3-[3-[(aminoiminomethyl)amino]phenyl]-3-oxopropyl]phenyl]propenoic acid, trifluoroacetate salt hydrate]
28 | 48.9 nM | 4010 nM | N=C(N)Nc1cccc(CCC(=O)c2cccc(/C=C/C(=O)O)c2)c1 [Example 92, 3-[3-[3-[3-[(aminoiminomethyl)amino]phenyl]-1-oxopropyl]phenyl]propenoic acid, trifluoroacetate salt]
